Experiments:
[1] = tested on: infiltration of neutrophil; assay: zymosan peritonitis model; format: in vivo, mouse C57BL/6J; settings: for suppressing effect for other cell group (macrophage etc.): 10 ng (FIG. 4C); for neutrophil suppressing activity compared with dexamethasone: 10 ng compound versus 10 μg dexamethasone (FIG. 4A, 4C); for dose dependence of activity in peritonitis model: Example 4, 1 ng or 10 ng/mouse (FIG. 4A(b), 4D); for activities of suppressing infiltration of neutrophil at an inflammation initial stage: low dose of 10 ng (FIG. 4C)
Description: For an inflammation model, zymosan peritonitis elicited by intraperitoneally administering zymosan being a cell wall component of yeast was used. Since an exudate in an abdominal cavity can be recovered, the present model is a model suitable for analyzing cytokines and eicosanoids.
Zymosan A (Wako Pure Chemical Industries, Ltd.) was suspended in a physiological saline to 1 mg/mL, and the suspension was warmed at 37° C. for 30 minutes. Thereafter, this zymosan A solution was vortexed, and returned to room temperature. The compound synthesized in the previous Example, 17,18-diHEPE was taken into a 1.5 mL tube, and a solvent was vaporized with nitrogen to complete dryness and, thereafter, a physiological saline was added to dissolve it. Then, 100 μL of this compound solution was injected (1 ng or 10 ng/mouse) through a tail vein of C57BL/6J mouse (7 weeks old, mail: CLEA Japan, Inc.). As a control, a group in which only a physiological saline was injected, and a group in which dexamethasone (10 μg/mouse) being an anti-inflammatory steroid was injected, were used. After about 2 minutes, 1 mL of a zymosan A solution was intraperitoneally administered. After 2 hours, cells exuded into an abdominal cavity were recovered into a tube with a PBS, and the cell number was counted. Thereafter, this tube was centrifuged at 1200 rpm and 4° C. for 5 minutes to remove the supernatant, a precipitate (pellet) was suspended in PBS, and a population was analyzed by three-color staining of FACS.
Abdominal cavity cells were adjusted to 2.5×10^6 cells/mL, and 200 μL was placed into a 5 mL round-bottom tube (BDFalcon) (5×10^5 cells/tube). To this tube was added an anti-mouse CD16/CD32 antibody (0.5 mg/mL; BDBiosciences) at 1 μL per tube, and this was incubated at room temperature for 10 minutes. To this tube was added a staining antibody mix (prepared by diluting 1.0 μL of FITC bound anti-mouse F4/80 antibody (0.5 mg/mL; eBiosciences), 0.5 μL of PE bound anti-mouse Ly-6G & Ly-6C antibody (0.2 mg/mL; eBiosciences) and 0.5 μL of PerCP-Cy5.5 bound anti-mouse CD11b antibody (0.2 mg/mL; eBiosciences) in 50 μL of PBS, per sample) at 50 μL/tube, and this was incubated at room temperature for 15 minutes under light shielding. Measurement was performed by FACS Calibur (BDBiosciences). […]

[2] = tested on: neutrophil which have infiltrated into lung; assay: acute lung damage model (intrabronchial hydrochloric acid); format: in vivo, mouse C57BL/6J; settings: 10 ng via tail vein; BAL 12 hours after hydrochloric acid (FIG. 4E)
Description: One hundred μL of a compound 17,18-diHEPE dissolved in a physiological saline was injected through a tail vein of a C57BL/6J mouse (7 weeks old, male; CLEA Japan, Inc.). After 15 minutes, this mouse was anesthetized by intraperitoneally administering a mixed solution of ketamine (Daiichi Sankyo Propharma) and xylazine (Bayer Medical Ltd.), a trachea was exposed, and 25 μL of hydrochloric acid (pH 1.0, 0.1 N; SIGMA) was administered into a left bronchium. As a control, a group in which only a physiological saline was injected and, after anesthesia, hydrochloric acid was administered into a left bronchium (saline/HCl), and a non-treated group (intact) were used. After 12 hours, this mouse was slaughtered, and bronchial alveolus washing (BAL) was performed with 0.7 mL of PBS two times. The cell number in the BAL solution was counted and a population of cells was quantitated by simple Giemsa staining using a simple Giemsa staining solution Diffquick (Sysmex Corporation).

| SMILES | suppressing effect for other cell group (macrophage etc.) [1] | neutrophil suppressing activity compared with dexamethasone [1] | dose dependence of activity in peritonitis model [1] | activities of suppressing infiltration of neutrophil at an inflammation initial stage [1] | neutrophil-specific infiltration suppressing activity [2] | suppression of infiltration of neutrophil ([1]; 10 ng/mouse via tail vein, abdominal cavity cells recovered 2 hours after zymosan, FACS (FIG. 4A)) | IC40 (dose versus decrease in the neutrophil number) ([1]; calculated from graph FIG. 4F) |
| --- | --- | --- | --- | --- | --- | --- | --- |
| CCC(O)C(O)/C=C/C=C/C=C\C/C=C\C/C=C\CCCC(=O)O (single isomer, unassigned) [peak 5, 17,18-diHEPE] | not recognized | equivalent to 10 μg of dexamethasone | dose-dependent | recognized | – | – | – |
| CCC(O)C(O)/C=C/C=C/C=C\C/C=C\C/C=C\CCCC(=O)O (single isomer, unassigned) [peak 6, 17,18-diHEPE] | not recognized | equivalent to 10 μg of dexamethasone | dose-dependent | recognized | recognized | – | – |
| CCC(O)C(O)/C=C/C=C/C=C\C/C=C\C/C=C\CCCC(=O)O (centres unmarked) [17,18-diHEPE, 17,18-dihydroxyeicosapentaenoic acid] | – | – | – | – | – | about 40% | approximately 8 ng |
